The target of data set [1] is T1, Nuclear receptor ROR-gamma (Homo sapiens, UniProt P51449).
T1 sequence (P51449 whole entry): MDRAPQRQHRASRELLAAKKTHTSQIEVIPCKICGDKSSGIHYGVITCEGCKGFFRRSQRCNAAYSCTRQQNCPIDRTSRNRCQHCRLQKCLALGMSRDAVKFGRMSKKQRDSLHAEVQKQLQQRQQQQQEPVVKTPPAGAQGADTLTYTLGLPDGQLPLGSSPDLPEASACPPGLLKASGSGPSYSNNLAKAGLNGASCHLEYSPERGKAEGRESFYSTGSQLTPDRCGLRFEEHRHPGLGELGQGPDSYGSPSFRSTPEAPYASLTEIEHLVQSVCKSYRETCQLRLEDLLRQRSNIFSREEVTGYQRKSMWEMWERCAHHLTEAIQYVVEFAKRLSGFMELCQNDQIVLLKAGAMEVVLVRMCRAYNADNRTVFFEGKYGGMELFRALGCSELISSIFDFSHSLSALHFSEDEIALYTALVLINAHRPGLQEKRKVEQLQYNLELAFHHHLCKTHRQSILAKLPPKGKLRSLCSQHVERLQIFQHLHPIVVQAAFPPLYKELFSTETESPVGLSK
In words: Inverse agonist activity at human GAL4 DBD-fused RORgammat LBD (237 to 497 residues) expressed in HEK293T cells assessed as reduction in ROR mediated transcriptional activity after 24 hrs by dual glo luciferase reporter gene assay. Format: cell-based. (In a reporter assay the amount or activity of a reporter protein is the signal.)

The target in data set [2] is Beta-1 adrenergic receptor (Homo sapiens, UniProt P08588). In words: Displacement of [3H](-)CGP 12177 from human beta1 adrenoceptor at 10 uM after 60 mins by scintillation counting analysis relative to control. On the technique in general: Displacement assays read how much labelled ligand stays bound in the presence of the test substance.
The target of data set [3] is Muscarinic acetylcholine receptor M2 (Homo sapiens) (UniProt P08172). In words: Displacement of [3H]AF-DX 384 from human recombinant M2 receptor at 10 uM after 60 mins by scintillation counting analysis relative to control.
The target in data set [4] is Muscarinic acetylcholine receptor M3 (Homo sapiens, UniProt P20309). Briefly: Displacement of [3H]4-DAMP from human recombinant M3 receptor at 10 uM after 60 mins by scintillation counting analysis relative to control.
Chain of Muscarinic acetylcholine receptor M3 (P20309 whole entry, looked up): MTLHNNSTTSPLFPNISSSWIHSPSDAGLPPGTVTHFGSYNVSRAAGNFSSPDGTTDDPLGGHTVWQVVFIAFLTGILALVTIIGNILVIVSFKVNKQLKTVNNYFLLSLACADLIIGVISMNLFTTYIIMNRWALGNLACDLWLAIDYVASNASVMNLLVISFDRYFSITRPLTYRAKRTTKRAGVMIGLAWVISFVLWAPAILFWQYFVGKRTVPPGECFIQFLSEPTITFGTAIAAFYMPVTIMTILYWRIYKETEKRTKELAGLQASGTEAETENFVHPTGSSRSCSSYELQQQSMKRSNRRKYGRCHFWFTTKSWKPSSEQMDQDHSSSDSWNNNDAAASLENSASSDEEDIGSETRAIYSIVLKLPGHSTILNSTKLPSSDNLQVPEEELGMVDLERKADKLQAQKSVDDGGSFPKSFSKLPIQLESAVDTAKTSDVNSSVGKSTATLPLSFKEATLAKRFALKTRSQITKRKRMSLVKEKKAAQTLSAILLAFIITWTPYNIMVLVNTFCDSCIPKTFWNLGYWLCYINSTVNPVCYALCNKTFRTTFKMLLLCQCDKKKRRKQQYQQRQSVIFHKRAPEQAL
Data set [5] addresses Neuromedin-K receptor (Homo sapiens) (UniProt P29371). In words: Displacement of [3H]SR 142801 from human recombinant NK3 receptor at 10 uM after 120 mins by scintillation counting analysis relative to control.
For data set [6], the target named is Cholecystokinin receptor type A (Homo sapiens) (UniProt P32238). Briefly: Displacement of [125I]CCK-8s from human recombinant CCK1 receptor at 1 uM after 60 mins by scintillation counting analysis relative to control.
Chain of Cholecystokinin receptor type A (Homo sapiens) (P32238 whole entry): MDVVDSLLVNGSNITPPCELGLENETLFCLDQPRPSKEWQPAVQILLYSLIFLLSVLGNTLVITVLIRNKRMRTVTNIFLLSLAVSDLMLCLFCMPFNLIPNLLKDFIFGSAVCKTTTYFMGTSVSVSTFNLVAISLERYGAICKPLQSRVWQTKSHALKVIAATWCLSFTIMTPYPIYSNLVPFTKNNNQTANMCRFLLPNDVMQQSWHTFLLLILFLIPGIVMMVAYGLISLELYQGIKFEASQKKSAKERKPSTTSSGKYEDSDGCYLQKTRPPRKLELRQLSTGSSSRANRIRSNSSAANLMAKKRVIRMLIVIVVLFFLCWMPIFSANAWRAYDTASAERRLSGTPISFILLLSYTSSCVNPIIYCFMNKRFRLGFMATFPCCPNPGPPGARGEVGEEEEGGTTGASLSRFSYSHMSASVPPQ
Data set [7] deals with Neuropeptide Y receptor type 1 (Homo sapiens) (UniProt P25929). Briefly: Displacement of [125I]peptide YY from human Y1 receptor at 1 uM after 120 mins by scintillation counting analysis relative to control.
Chain of Neuropeptide Y receptor type 1 (Homo sapiens) (P25929 whole entry): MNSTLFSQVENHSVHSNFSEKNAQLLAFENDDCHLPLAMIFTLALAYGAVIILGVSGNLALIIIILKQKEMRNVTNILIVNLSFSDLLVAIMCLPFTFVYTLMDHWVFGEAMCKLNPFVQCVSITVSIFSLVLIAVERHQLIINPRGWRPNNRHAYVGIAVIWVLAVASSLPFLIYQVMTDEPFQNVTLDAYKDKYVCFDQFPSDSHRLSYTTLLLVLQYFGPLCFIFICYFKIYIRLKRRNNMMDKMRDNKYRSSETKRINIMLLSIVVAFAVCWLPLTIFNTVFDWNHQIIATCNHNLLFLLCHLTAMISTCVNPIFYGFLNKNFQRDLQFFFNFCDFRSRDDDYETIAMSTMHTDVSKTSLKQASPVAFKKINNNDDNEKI
The target in data set [8] is Neuropeptide Y receptor type 2 (Homo sapiens) (UniProt P49146). In words: Displacement of [125I]peptide YY from human Y2 receptor at 1 uM after 120 mins by scintillation counting analysis relative to control.
Chain of Neuropeptide Y receptor type 2 (Homo sapiens) (P49146 whole entry): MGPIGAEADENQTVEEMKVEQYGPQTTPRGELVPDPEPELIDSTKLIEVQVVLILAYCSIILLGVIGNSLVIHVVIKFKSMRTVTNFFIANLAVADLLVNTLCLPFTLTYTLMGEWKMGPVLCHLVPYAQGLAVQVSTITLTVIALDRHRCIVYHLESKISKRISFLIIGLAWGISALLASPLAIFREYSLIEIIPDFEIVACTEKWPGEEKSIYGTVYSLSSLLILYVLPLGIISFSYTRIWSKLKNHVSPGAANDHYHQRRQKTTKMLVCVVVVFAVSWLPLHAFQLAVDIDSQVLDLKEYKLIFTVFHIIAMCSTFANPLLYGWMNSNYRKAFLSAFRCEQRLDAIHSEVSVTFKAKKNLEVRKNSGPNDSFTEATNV
The target of data set [9] is 5-hydroxytryptamine receptor 5A (Homo sapiens, UniProt P47898). Briefly: Displacement of [3H]LSD from human recombinant 5-HT5a receptor at 1 uM after 120 mins by scintillation counting analysis relative to control.
Data set [10] deals with Small conductance calcium-activated potassium channel (Rattus norvegicus) (UniProt P70604+P70606+P70605). In words: Displacement of [125I]apamin from rat brain SkCa channel at 1 uM after 60 mins by scintillation counting analysis relative to control.
The species named for a further data set is Rattus norvegicus. Briefly: Displacement of [3H]batrachotoxinin from rat brain voltage gated sodium ion channel site 2 at 1 uM after 60 mins by scintillation counting analysis relative to control.
The target of another data set is Adenosine receptor A1 (Homo sapiens, UniProt P30542). Briefly: Displacement of [3H]-DPCPX from human recombinant adenosine A1 receptor after 60 mins by scintillation counting analysis.
Another data set deals with Adenosine receptor A3 (Homo sapiens, UniProt P0DMS8). In words: Displacement of [125I]AB-MECA from human recombinant adenosine A3 receptor after 120 mins by scintillation counting analysis.
Data set [11] concerns the target Neurotensin receptor type 1 (Homo sapiens, UniProt P30989). Briefly: Displacement of [125I]Tyr3-neurotensin from human recombinant NTS1 receptor after 120 mins by scintillation counting analysis.
Data set [12] addresses 5-hydroxytryptamine receptor 2B (Homo sapiens, UniProt P41595). Briefly: Displacement of [125I]+/-DOI from human recombinant 5-HT2B receptor after 60 mins by scintillation counting analysis.
Data set [13] addresses RAC-alpha serine/threonine-protein kinase (Homo sapiens) (UniProt P31749). Briefly: Inhibition of recombinant full length His-tagged human AKT1 expressed in baculovirus expression system at 10 uM in presence of ATP relative to control.
The target of data set [14] is Serine/threonine-protein kinase Chk1 (Homo sapiens) (UniProt O14757). In words: Inhibition of recombinant full length His-tagged human CHK1 expressed in baculovirus expression system at 10 uM in presence of ATP relative to control.
In data set [15] the target is G protein-coupled receptor kinase 4 (Homo sapiens) (UniProt P32298). In words: Inhibition of recombinant human full length GST-tagged GRK4 expressed in baculovirus expression system at 10 uM in presence of ATP relative to control.
The target of data set [16] is Platelet-derived growth factor receptor beta (Homo sapiens) (UniProt P09619). In words: Inhibition of recombinant His-tagged human PDGFRbeta (558 to 1106 residues) cytoplasmic domain expressed in baculovirus expression system at 10 uM in presence of ATP relative to control.
Chain of Platelet-derived growth factor receptor beta (Homo sapiens) (P09619 whole entry, the tested form may be a part): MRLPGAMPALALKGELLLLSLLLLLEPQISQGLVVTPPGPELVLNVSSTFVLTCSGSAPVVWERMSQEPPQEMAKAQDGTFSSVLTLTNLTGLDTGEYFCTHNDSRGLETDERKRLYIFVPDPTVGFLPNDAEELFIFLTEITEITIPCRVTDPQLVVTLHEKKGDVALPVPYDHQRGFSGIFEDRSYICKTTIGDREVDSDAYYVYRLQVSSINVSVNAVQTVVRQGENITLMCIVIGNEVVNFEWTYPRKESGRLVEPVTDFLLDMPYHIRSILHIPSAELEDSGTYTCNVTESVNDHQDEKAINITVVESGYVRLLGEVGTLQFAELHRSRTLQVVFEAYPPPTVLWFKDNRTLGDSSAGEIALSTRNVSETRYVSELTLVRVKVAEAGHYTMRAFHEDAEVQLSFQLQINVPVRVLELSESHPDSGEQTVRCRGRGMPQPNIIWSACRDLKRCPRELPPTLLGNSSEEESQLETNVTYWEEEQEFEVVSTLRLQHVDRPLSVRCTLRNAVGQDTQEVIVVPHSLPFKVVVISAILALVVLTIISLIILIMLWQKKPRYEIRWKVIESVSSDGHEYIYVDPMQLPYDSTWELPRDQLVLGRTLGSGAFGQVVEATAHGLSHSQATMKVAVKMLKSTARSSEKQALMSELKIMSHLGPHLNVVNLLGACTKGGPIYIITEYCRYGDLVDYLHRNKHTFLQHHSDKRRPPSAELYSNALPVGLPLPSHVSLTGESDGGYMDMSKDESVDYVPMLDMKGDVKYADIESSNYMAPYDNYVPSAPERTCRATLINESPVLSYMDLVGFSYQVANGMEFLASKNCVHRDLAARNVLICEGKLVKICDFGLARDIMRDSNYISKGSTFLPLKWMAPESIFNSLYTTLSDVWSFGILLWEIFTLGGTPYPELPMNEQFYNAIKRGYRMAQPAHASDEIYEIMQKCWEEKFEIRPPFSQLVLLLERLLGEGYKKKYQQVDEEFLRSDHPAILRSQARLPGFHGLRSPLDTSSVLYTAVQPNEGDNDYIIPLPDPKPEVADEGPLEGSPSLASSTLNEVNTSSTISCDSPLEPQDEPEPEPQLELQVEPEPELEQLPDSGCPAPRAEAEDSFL
Another data set addresses T2, Cytochrome P450 1A2 (Homo sapiens, UniProt P05177).
T2 sequence (P05177 whole entry): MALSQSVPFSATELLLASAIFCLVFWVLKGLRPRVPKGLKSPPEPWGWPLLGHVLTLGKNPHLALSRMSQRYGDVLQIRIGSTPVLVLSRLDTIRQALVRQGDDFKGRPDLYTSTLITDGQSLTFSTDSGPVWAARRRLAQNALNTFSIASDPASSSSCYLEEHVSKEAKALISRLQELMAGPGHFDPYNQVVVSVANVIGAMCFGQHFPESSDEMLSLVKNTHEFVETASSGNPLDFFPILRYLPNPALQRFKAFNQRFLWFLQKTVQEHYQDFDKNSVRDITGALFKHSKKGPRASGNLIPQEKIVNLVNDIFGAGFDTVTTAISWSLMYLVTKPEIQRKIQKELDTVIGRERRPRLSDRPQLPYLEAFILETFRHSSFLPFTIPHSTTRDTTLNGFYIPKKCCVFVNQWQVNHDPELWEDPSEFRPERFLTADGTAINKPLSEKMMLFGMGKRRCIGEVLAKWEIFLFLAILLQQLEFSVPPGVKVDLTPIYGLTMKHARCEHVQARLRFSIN
In words: Inhibition of CYP1A2 (unknown origin). Format: ADME.

Data set [17] addresses Proto-oncogene tyrosine-protein kinase Src (Homo sapiens) (UniProt P12931). Briefly: Inhibition of recombinant full length C-terminal His-tagged human Src cytoplasmic domain expressed in baculovirus expression system at 10 uM in presence of ATP relative to control.

Data on one molecule can be found in ChEMBL document CHEMBL4118122, “Identification and biological evaluation of thiazole-based inverse agonists of RORγt” (Bioorg Med Chem Lett, 2018).

Where only a bound is given, the exact number is not on record here.

Chain of RAC-alpha serine/threonine-protein kinase (Homo sapiens) (P31749 whole entry): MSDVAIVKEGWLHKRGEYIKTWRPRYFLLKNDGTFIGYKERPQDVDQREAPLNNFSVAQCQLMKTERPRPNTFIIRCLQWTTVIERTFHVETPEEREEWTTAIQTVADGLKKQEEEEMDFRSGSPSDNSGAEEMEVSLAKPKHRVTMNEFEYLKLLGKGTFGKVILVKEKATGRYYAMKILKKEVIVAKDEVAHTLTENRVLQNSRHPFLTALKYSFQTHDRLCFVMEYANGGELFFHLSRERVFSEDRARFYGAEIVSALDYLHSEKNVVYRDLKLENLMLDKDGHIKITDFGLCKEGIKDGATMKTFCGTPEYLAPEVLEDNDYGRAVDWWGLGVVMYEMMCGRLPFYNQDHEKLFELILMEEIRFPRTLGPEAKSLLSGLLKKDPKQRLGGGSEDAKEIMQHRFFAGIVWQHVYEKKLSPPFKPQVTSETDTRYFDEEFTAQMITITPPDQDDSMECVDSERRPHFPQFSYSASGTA
Chain of Proto-oncogene tyrosine-protein kinase Src (Homo sapiens) (P12931 2-536 limits assumed): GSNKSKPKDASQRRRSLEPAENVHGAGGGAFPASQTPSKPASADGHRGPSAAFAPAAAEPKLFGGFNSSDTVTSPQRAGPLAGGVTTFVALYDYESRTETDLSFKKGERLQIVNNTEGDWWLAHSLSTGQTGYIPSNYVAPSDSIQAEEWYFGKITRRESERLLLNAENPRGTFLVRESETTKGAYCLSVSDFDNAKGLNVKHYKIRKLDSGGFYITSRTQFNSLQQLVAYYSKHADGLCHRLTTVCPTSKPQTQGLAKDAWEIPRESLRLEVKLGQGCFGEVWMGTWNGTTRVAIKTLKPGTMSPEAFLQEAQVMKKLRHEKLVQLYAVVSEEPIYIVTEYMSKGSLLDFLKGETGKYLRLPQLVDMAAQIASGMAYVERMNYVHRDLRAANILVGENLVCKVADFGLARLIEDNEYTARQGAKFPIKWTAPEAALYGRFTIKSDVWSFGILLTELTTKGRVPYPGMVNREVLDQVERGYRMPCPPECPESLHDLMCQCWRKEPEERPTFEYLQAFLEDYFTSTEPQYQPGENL
Chain of 5-hydroxytryptamine receptor 2B (P41595 whole entry): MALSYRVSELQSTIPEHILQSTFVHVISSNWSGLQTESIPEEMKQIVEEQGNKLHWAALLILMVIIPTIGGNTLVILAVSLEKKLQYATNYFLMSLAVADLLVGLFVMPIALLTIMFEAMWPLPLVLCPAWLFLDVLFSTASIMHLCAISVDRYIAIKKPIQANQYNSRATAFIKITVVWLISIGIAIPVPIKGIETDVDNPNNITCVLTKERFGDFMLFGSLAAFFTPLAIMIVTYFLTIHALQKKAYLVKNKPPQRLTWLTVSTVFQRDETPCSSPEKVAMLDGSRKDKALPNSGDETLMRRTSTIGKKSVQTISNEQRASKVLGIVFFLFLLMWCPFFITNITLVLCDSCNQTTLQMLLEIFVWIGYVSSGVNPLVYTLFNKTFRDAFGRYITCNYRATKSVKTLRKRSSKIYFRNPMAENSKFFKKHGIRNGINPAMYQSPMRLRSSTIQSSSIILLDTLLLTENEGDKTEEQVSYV
Chain of Neuromedin-K receptor (Homo sapiens) (P29371 whole entry): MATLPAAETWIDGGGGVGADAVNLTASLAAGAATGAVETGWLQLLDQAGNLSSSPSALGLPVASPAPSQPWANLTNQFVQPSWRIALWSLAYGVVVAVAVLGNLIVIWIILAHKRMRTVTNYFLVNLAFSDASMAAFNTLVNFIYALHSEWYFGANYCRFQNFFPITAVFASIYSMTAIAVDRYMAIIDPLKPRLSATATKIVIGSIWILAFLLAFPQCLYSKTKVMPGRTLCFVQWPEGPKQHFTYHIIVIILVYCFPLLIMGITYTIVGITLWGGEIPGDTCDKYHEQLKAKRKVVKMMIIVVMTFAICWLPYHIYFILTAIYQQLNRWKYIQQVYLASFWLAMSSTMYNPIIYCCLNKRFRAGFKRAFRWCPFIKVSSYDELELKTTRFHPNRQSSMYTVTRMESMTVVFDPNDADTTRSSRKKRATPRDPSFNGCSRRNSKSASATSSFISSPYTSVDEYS

As a reminder, the IC50 is the concentration that gives 50% inhibition. By inhibition is commonly meant the change of the read-out against control, counted positive when it falls. `CC(C)(C)NS(=O)(=O)c1ccc(-c2sc(C(=O)N[C@H]3C[C@H](C(=O)O)C3)nc2CC2CCCCC2)c2ccccc12`: the IC50 stood at 940 pM in data set [1]; 610 pM on Adenosine receptor A1; 170 pM on Adenosine receptor A3; 250 pM in data set [11]; 3200 pM in [12]. For the same molecule, the inhibition was 11% in [2]; 12% in data set [3]; 23% in [4]; 32% in [5]; below 10% in data set [6]; below 10% in data set [7]. The inhibition in data set [8] was below 10%; in [9], below 10%; in data set [10], below 10%; in the data set listed under Rattus norvegicus, below 10%; in data set [13], -5%; in [14], 1%. Further, the results for the inhibition in data set [15], in [16] and in data set [17] were -3%, -4% and -4%, respectively. The same molecule had an INH at Cytochrome P450 1A2 above 10 µM.
